Test results from ChEMBL document CHEMBL3763132, “Discovery of highly selective CRAF inhibitors, 3-carboxamido-2H-indazole-6-arylamide: In silico FBLD design, synthesis and evaluation” (Bioorg Med Chem Lett, 2016).
Each block holds one compound with its values, some of them ahead of it.

Experiments:
[1] = Antiproliferative activity against human A375P cells by MTT assay; type: functional
[2] = Antiproliferative activity against human WM3629 cells by MTT/CellTiter 96 assay; type: functional
[3] = target: Vascular endothelial growth factor receptor 2 (Homo sapiens) (UniProt P35968); test: Inhibition of human KDR at 10 uM
[4] = target: Tyrosine-protein kinase ABL1 (Homo sapiens) (UniProt P00519); test: Inhibition of human ABL1 at 10 uM
[5] = target: Receptor-type tyrosine-protein kinase FLT3 (Homo sapiens) (UniProt P36888); test: Inhibition of human FLT3 at 10 uM
[6] = target: T1, RAF proto-oncogene serine/threonine-protein kinase (Homo sapiens, UniProt P04049); conditions: 10 uM
Description: Inhibition of human RAF1 at 10 uM

[7] = target: Insulin-like growth factor 1 receptor (Homo sapiens) (UniProt P08069); test: Inhibition of human IGF1R at 10 uM
[8] = target: Fibroblast growth factor receptor 3 (Homo sapiens) (UniProt P22607); test: Inhibition of human FGFR3 at 10 uM
[9] = target: Tyrosine-protein kinase SYK (Homo sapiens) (UniProt P43405); test: Inhibition of human SYK at 10 uM
[10] = target: Serine/threonine-protein kinase B-raf (Homo sapiens, UniProt P15056, V600E); test: Inhibition of BRAF V599E mutant (unknown origin)
[11] = target: Fibroblast growth factor receptor 2 (Homo sapiens) (UniProt P21802); test: Inhibition of human FGFR2 at 10 uM
[12] = target: Focal adhesion kinase 1 (Homo sapiens) (UniProt Q05397); test: Inhibition of human FAK at 10 uM
[13] = target: ALK tyrosine kinase receptor (Homo sapiens) (UniProt Q9UM73); test: Inhibition of human ALK at 10 uM
[14] = target: Mast/stem cell growth factor receptor Kit (Homo sapiens) (UniProt P10721); test: Inhibition of human cKIT at 10 uM
[15] = target: T2, Serine/threonine-protein kinase B-raf (Homo sapiens, UniProt P15056); test: Inhibition of BRAF (unknown origin)
[16] = target: Aurora kinase A (Homo sapiens) (UniProt O14965); test: Inhibition of human Aurora A at 10 uM
[17] = target: Epidermal growth factor receptor (Homo sapiens) (UniProt P00533); test: Inhibition of human EGFR at 10 uM
[18] = target: Tyrosine-protein kinase Lck (Homo sapiens) (UniProt P06239); test: Inhibition of human LCK at 10 uM
[19] = target: Glycogen synthase kinase-3 beta (Homo sapiens) (UniProt P49841); test: Inhibition of human GSK3beta at 10 uM
[20] = target: Mitogen-activated protein kinase 14 (Homo sapiens) (UniProt Q16539); test: Inhibition of human MAPK14 at 10 uM
[21] = target: Cyclin-dependent kinase 1/cyclin B1 (Homo sapiens) (UniProt P06493+P14635); test: Inhibition of human CDK1/cyclin B at 10 uM; type: protein-complex assay
[22] = Selectivity ratio of GI50 for human A375P cells to GI50 for human WM3629 cells; type: functional
[23] = tested on: Serine/threonine-protein kinase B-raf (Homo sapiens), P15056 [V600E]; conditions: 10 uM
Description: Inhibition of human BRAF V599E mutant at 10 uM

[24] = target: Macrophage colony-stimulating factor 1 receptor (Homo sapiens) (UniProt P07333); test: Inhibition of human FMS at 10 uM
[25] = target: Proto-oncogene tyrosine-protein kinase Src (Homo sapiens) (UniProt P12931); test: Inhibition of human cSRC at 10 uM
[26] = target: Dual specificity mitogen-activated protein kinase kinase 1 (Homo sapiens) (UniProt Q02750); test: Inhibition of human MEK1 at 10 uM
[27] = target: Serine/threonine-protein kinase PLK1 (Homo sapiens) (UniProt P53350); test: Inhibition of human PLK1 at 10 uM
[28] = target: Serine/threonine-protein kinase mTOR (Homo sapiens) (UniProt P42345); test: Inhibition of human mTOR at 10 uM
[29] = target: Mitogen-activated protein kinase 3 (Homo sapiens) (UniProt P27361); test: Inhibition of human ERK1 at 10 uM
[30] = target: Tyrosine-protein kinase JAK3 (Homo sapiens) (UniProt P52333); test: Inhibition of human JAK3 at 10 uM
[31] = target: T1, RAF proto-oncogene serine/threonine-protein kinase; test: Inhibition of CRAF (unknown origin)
[32] = target: RAC-alpha serine/threonine-protein kinase (Homo sapiens) (UniProt P31749); test: Inhibition of human AKT1 at 10 uM
[33] = target: Cyclin-dependent kinase 2/cyclin E1 (Homo sapiens) (UniProt P24864+P24941); test: Inhibition of human CDK2/cyclin E at 10 uM; type: protein-complex assay
[34] = target: Tyrosine-protein kinase Lyn (Homo sapiens) (UniProt P07948); test: Inhibition of human LYN at 10 uM
[35] = target: Mitogen-activated protein kinase 10 (Homo sapiens) (UniProt P53779); test: Inhibition of human JNK3 at 10 uM
[36] = target: T2, Serine/threonine-protein kinase B-raf; conditions: 10 uM
Description: Inhibition of human BRAF at 10 uM

[37] = target: Hepatocyte growth factor receptor (Homo sapiens) (UniProt P08581); test: Inhibition of human cMET at 10 uM
[38] = target: Macrophage-stimulating protein receptor (Homo sapiens) (UniProt Q04912); test: Inhibition of human RON at 10 uM
Homo sapiens = species: Homo sapiens; test: Inhibition of human PKA at 10 uM
[39] = target: Proto-oncogene tyrosine-protein kinase ROS (Homo sapiens) (UniProt P08922); test: Inhibition of human ROS1 at 10 uM

T1 sequence (P04049 whole entry): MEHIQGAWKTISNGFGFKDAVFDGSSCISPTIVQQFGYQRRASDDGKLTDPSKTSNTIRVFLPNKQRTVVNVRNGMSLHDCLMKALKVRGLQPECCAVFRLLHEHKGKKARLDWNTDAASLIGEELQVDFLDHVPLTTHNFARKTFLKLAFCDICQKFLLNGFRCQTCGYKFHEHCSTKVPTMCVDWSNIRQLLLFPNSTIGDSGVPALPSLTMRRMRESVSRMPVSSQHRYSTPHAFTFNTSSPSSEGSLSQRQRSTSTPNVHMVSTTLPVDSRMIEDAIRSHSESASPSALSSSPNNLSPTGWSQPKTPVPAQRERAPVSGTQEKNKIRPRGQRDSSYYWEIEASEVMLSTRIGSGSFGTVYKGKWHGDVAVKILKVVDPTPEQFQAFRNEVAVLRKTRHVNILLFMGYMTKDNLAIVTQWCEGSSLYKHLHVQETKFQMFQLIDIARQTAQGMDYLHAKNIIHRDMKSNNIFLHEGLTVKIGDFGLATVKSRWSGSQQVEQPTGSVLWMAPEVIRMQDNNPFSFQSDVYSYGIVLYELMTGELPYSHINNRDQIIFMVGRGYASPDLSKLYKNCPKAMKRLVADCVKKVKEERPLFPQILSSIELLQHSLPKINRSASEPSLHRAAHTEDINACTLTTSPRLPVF
T2 sequence (P15056 whole entry): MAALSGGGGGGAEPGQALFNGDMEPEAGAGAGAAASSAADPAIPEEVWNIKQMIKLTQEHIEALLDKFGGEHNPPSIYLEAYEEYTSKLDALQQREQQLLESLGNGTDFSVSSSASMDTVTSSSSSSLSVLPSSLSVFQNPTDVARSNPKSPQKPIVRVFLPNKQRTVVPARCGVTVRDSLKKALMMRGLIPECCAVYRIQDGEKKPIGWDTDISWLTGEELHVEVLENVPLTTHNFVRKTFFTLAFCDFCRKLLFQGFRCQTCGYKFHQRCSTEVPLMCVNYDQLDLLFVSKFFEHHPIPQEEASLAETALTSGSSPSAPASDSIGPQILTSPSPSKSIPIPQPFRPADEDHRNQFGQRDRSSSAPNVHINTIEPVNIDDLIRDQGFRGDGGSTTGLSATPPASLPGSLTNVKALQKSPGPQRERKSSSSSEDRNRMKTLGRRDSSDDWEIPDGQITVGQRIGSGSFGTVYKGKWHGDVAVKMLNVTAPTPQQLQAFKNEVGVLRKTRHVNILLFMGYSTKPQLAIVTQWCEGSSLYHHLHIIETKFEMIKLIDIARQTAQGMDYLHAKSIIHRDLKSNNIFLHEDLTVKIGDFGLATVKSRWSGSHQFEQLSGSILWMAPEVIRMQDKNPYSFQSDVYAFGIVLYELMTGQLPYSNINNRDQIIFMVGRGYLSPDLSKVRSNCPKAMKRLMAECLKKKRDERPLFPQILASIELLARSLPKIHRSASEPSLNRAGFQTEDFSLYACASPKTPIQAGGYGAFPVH
Sequence of Macrophage colony-stimulating factor 1 receptor (Homo sapiens) (P07333 whole entry): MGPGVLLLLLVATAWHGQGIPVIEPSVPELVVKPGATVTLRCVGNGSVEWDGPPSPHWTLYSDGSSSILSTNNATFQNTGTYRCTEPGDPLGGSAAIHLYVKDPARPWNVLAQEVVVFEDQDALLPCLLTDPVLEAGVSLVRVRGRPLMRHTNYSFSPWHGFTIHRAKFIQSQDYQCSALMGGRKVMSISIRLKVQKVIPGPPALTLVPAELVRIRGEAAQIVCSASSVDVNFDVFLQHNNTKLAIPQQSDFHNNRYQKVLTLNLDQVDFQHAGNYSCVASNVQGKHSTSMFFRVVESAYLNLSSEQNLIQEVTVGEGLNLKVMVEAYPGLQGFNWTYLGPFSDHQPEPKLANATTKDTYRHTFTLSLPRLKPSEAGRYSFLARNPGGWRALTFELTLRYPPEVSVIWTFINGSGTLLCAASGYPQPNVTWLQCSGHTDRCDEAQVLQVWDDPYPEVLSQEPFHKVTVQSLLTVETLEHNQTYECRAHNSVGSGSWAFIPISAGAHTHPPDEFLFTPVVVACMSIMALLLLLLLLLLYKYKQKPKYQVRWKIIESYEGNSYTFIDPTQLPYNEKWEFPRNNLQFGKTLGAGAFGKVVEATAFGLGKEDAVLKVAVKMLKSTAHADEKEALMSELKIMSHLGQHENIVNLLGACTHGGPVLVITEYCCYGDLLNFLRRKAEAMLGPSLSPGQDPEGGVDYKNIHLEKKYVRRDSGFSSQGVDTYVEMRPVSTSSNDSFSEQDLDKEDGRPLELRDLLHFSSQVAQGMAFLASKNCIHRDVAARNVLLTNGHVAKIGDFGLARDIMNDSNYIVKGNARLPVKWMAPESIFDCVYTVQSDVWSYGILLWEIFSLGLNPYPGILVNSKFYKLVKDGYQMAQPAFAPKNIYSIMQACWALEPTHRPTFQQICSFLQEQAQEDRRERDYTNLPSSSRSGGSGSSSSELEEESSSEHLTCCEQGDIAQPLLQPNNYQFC
Sequence of Macrophage-stimulating protein receptor (Homo sapiens) (Q04912 25-304 limits assumed): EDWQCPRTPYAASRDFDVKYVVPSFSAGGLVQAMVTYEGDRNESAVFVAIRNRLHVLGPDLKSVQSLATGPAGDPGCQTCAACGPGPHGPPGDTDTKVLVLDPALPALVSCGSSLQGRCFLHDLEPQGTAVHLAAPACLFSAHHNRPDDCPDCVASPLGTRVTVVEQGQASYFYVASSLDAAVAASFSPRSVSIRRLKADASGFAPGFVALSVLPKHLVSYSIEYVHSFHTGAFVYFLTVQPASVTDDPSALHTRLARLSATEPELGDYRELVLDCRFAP
Sequence of Macrophage-stimulating protein receptor (Homo sapiens) (Q04912 310-1400 limits assumed): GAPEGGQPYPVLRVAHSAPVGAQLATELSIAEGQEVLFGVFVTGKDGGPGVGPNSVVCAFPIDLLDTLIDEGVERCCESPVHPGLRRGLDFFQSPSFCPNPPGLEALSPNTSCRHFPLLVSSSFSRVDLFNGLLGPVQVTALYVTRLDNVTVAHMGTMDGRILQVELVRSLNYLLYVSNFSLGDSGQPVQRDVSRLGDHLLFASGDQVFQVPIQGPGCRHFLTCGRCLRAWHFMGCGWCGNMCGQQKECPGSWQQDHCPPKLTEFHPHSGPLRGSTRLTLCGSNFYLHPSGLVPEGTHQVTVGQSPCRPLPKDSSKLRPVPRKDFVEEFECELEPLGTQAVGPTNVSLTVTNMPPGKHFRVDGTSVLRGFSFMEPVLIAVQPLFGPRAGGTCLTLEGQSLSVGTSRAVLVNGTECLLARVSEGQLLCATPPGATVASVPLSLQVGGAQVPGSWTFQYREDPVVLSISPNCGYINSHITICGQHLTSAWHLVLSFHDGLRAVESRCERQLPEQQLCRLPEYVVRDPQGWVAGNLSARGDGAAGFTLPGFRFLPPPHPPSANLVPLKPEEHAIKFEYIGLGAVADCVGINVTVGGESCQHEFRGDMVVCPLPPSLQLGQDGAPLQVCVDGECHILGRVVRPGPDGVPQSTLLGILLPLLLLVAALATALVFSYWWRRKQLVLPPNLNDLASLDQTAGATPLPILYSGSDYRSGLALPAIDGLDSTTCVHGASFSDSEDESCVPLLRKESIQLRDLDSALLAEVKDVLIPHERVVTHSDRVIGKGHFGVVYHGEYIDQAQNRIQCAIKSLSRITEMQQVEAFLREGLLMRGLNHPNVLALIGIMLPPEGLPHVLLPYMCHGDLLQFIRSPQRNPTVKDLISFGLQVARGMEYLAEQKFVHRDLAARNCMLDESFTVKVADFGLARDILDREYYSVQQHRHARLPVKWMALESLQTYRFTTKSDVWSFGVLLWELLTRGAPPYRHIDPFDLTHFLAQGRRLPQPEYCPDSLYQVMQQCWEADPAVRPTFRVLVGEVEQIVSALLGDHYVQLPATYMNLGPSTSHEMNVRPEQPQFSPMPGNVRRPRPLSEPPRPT
Sequence of Epidermal growth factor receptor (Homo sapiens) (P00533 whole entry): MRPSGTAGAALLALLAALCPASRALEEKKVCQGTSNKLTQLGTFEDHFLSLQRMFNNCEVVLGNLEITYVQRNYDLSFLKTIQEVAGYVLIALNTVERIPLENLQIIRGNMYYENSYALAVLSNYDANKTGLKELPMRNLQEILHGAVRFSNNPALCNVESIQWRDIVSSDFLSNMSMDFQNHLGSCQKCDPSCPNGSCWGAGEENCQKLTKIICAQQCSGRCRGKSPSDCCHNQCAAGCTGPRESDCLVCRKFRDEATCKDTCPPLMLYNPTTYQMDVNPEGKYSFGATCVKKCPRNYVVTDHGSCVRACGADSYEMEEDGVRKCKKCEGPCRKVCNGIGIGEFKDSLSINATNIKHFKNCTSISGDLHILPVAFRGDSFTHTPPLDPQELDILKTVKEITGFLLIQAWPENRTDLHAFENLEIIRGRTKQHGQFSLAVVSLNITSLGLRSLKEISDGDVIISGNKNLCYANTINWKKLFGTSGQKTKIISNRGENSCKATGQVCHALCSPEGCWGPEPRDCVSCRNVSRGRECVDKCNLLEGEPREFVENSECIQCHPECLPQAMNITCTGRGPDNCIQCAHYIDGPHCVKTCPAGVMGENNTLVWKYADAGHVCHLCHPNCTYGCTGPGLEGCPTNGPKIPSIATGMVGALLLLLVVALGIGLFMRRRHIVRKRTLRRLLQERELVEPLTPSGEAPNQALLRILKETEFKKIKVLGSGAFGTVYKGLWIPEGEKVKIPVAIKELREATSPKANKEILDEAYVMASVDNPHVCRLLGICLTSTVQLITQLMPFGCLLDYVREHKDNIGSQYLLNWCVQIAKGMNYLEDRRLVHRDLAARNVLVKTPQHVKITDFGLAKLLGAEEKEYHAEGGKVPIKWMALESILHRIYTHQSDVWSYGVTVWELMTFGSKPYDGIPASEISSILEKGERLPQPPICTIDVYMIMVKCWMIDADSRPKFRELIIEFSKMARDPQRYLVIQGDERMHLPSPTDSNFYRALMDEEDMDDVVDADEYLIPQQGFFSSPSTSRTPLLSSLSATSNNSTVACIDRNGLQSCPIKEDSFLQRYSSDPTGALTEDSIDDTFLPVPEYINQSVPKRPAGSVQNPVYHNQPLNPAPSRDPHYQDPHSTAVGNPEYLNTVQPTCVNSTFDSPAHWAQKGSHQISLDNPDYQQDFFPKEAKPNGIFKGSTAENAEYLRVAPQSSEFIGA
Sequence of Serine/threonine-protein kinase B-raf (Homo sapiens), P15056 [V600E] (P15056 whole entry V600E): as the sequence (P15056 whole entry) above, with V600E counted along it

SMILES: Cc1cncn1-c1cc(C(=O)Nc2ccc3c(C(=O)N[C@@H](C)C(N)=O)[nH]nc3c2)cc(C(F)(F)F)c1
GI50 [1]: 7.19 µM | GI50 [2]: 12.9 µM

SMILES: COc1cccc(CNc2ccc3c(C(=O)N[C@@H](C)C(N)=O)[nH]nc3c2)c1
GI50 [1]: 17.8 µM | GI50 [2]: 7.19 µM

SMILES: C[C@H](NC(=O)c1[nH]nc2cc(NC(=O)Nc3ccc(Cl)c(C(F)(F)F)c3)ccc12)C(N)=O
GI50 [1]: 8.58 µM | GI50 [2]: 6.59 µM

SMILES: C[C@H](NC(=O)c1[nH]nc2cc(NC(=O)c3ccc4ncccc4c3)ccc12)C(N)=O
GI50 [1]: > 30 µM | GI50 [2]: > 30 µM

SMILES: C[C@H](NC(=O)c1[nH]nc2cc(NCc3cccc(NC(=O)c4cc(N5CCOCC5)cc(C(F)(F)F)c4)c3)ccc12)C(N)=O
GI50 [1]: 25.6 µM | GI50 [2]: 2.25 µM

SMILES: C[C@H](NC(=O)c1[nH]nc2cc(NC(=O)Nc3ccc(N4CCOCC4)cc3)ccc12)C(N)=O
GI50 [1]: 12.3 µM | GI50 [2]: 9.29 µM

SMILES: C[C@H](NC(=O)c1[nH]nc2cc(NC(=O)Nc3ccc(C(F)(F)F)c(N4CCOCC4)c3)ccc12)C(N)=O
GI50 [1]: 10.1 µM | GI50 [2]: 3.51 µM

inhibition [3]: 0% | inhibition [4]: 2.44% | inhibition [5]: 1.16% | inhibition [6]: 99.4% | inhibition [7]: 0% | inhibition [8]: 14.9% | inhibition [9]: 2.89% | IC50 [10]: 7.82 µM | inhibition [11]: 9.75% | inhibition [12]: 8.88% | inhibition [13]: 0% | inhibition [14]: 22.2% | IC50 [15]: 9.45 µM | inhibition [16]: 4.99% | inhibition [17]: 0% | inhibition [18]: 7.62% | inhibition [19]: 12.3% | inhibition [20]: 11.4% | inhibition [21]: 8.36% | inhibition [23]: 19.5% | inhibition [24]: 10.6% | inhibition [25]: 0% | inhibition [26]: 0% | inhibition [27]: 9.04% | inhibition [28]: 0% | inhibition [29]: 4.2% | inhibition [30]: 0% | IC50 [31]: 38.6 µM | inhibition [32]: 7.08% | inhibition [33]: 3.1% | inhibition [34]: 5.4% | inhibition [35]: 0% | inhibition [36]: 21.1% | inhibition [37]: 9.84% | inhibition [38]: 0.7% | inhibition (Homo sapiens): 0% | inhibition [39]: 1.49%
SMILES: Cc1cncn1-c1cc(C(=O)Nc2cccc(CNc3ccc4c(C(=O)N[C@@H](C)C(N)=O)[nH]nc4c3)c2)cc(C(F)(F)F)c1
GI50 [1]: 15.9 µM | GI50 [2]: 0.65 µM | RatioGI50 [22]: 25

SMILES: COc1ccc(-c2ccc(C(=O)Nc3ccc4c(C(=O)N[C@@H](C)C(N)=O)[nH]nc4c3)o2)cc1
GI50 [1]: 19.2 µM | GI50 [2]: 7.86 µM

SMILES: C[C@H](NC(=O)c1[nH]nc2cc(NCc3ccc(F)cc3)ccc12)C(N)=O
GI50 [1]: 10.1 µM | GI50 [2]: 9.05 µM

SMILES: C[C@H](NC(=O)c1[nH]nc2cc(NC(=O)c3ccc(Cl)c(C(F)(F)F)c3)ccc12)C(N)=O
GI50 [1]: 10.5 µM | GI50 [2]: 9.13 µM

SMILES: C[C@H](NC(=O)c1[nH]nc2cc(NCc3cccc(NC(=O)c4cccc(C(C)(C)C#N)c4)c3)ccc12)C(N)=O
GI50 [1]: 28.3 µM | GI50 [2]: 7.37 µM

SMILES: C[C@H](NC(=O)c1[nH]nc2cc(NC(=O)c3ccccc3)ccc12)C(N)=O
GI50 [1]: > 30 µM | GI50 [2]: > 30 µM

SMILES: CNC(=O)c1cc(Oc2ccc(NC(=O)Nc3ccc(Cl)c(C(F)(F)F)c3)cc2)ccn1 [SORAFENIB]
GI50 [1]: 2.58 µM | GI50 [2]: 0.78 µM

SMILES: C[C@H](NC(=O)c1[nH]nc2cc(NCc3cccc(NC(=O)c4ccc(Cl)c(C(F)(F)F)c4)c3)ccc12)C(N)=O
GI50 [1]: 7.19 µM | GI50 [2]: 4.54 µM

SMILES: COc1ccc(-n2ncc(C(=O)Nc3ccc4c(C(=O)N[C@@H](C)C(N)=O)[nH]nc4c3)c2C(F)(F)F)cc1
GI50 [1]: 24.6 µM | GI50 [2]: 3.28 µM

SMILES: C[C@H](NC(=O)c1[nH]nc2cc(NC(=O)c3cc4ccccc4s3)ccc12)C(N)=O
GI50 [1]: 28.2 µM | GI50 [2]: > 30 µM

SMILES: C[C@H](NC(=O)c1[nH]nc2cc(NC(=O)Nc3cccc(C(F)(F)F)c3)ccc12)C(N)=O
GI50 [1]: 8.41 µM | GI50 [2]: 6.43 µM

SMILES: C[C@H](NC(=O)c1[nH]nc2cc(NC(=O)c3cc(N4CCOCC4)cc(C(F)(F)F)c3)ccc12)C(N)=O
GI50 [1]: > 30 µM | GI50 [2]: > 30 µM

SMILES: C[C@H](NC(=O)c1[nH]nc2cc(NC(=O)c3cccc(C(C)(C)C#N)c3)ccc12)C(N)=O
GI50 [1]: > 30 µM | GI50 [2]: > 30 µM

SMILES: C[C@H](NC(=O)c1[nH]nc2cc(NCc3cccc(NC(=O)c4cnccn4)c3)ccc12)C(N)=O
GI50 [1]: 19.2 µM | GI50 [2]: 7.86 µM

SMILES: C[C@H](NC(=O)c1[nH]nc2cc(NC(=O)C(c3ccccc3)c3ccccc3)ccc12)C(N)=O
GI50 [1]: > 30 µM | GI50 [2]: > 30 µM

SMILES: C[C@H](NC(=O)c1[nH]nc2cc(NC(=O)c3cccc(C(F)(F)F)c3)ccc12)C(N)=O
GI50 [1]: > 30 µM | GI50 [2]: > 30 µM

SMILES: C[C@H](NC(=O)c1[nH]nc2cc(NC(=O)c3ccc(C(F)(F)F)c(N4CCOCC4)c3)ccc12)C(N)=O
GI50 [1]: 28.3 µM | GI50 [2]: 7.37 µM
